Reference: US12115209B2, “ROMO1-derived antimicrobial peptides including lysine substitution and variants thereof” (KOREA UNIVERSITY RESEARCH AND BUSINESS FOUNDATION, priority 2019, dated 2024)
Non-standard residues stand in square brackets, D forms with d. Residues, ends and D or L forms follow the SMILES beside them.

Columns and labels:
Type in all cases: cell-based
[1] = system: mouse red blood cells
Experimental: Red blood cells were diluted with PBS, centrifuged 3 times at 900 g for 10 minutes, and washed. 100 μl of the diluted red blood cell solution (10% v/v PBS) was dispensed into each well of a 96-well microplate, and KU-5878, KU-5878-K4, KU-5878-K4-D, melittin, magainin 2 or daptomycin was added to each well which was then filled with PBS to 200 μl, followed by reaction by incubation at 37° C. for 1 hour. Then, the supernatant of the reaction solution was separated, and the absorbance at a wavelength of 550 nm was measured using a spectrophotometer. As control, PBS and 0.1% Triton X-100 (Triton X-100) solution were used.
Based on the results of measurement of the absorbance, the degree of red blood cell destruction was calculated according to Equation 1 below, and the results of the calculation are shown in FIG. 6. % The intact RBC=100(%)−[(absorbance of peptide-treated red blood cell solution−absorbance of PBS-treated red blood cell solution)/(absorbance of Triton X-100-treated red blood cell solution−absorbance of PBS-treated red blood cell solution)×100(%)] [Equation 1]

[2] = system: CRPA; test: Minimum bactericidal concentration (MBC) assay; design: unit: µg/mL
[3] = system: Staphylococcus aureus (ATCC 29213); test: Minimum bactericidal concentration (MBC) assay; design: MBC Staphylococcus aureus: unit: µg/mL
Outline: (§1)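 Strains were cultured in 3% TSB at 37° C and brought to 2×10^5 CFU/ml in SP buffer. This suspension was mixed with peptide (0–300 μg/ml) for 1 h at 37° C. Reaction mixtures were then plated on TS agar and incubated 18 h.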

[4] = system: Pseudomonas aeruginosa, Staphylococcus aureus, CRPA, MRSA; test: Increase in antibacterial activity (MBC) compared with KU-5878
[5] = system: Pseudomonas aeruginosa (ATCC 27853); test: Minimum bactericidal concentration (MBC) assay; design: MBC Pseudomonas aeruginosa: unit: µg/mL
Outline: as §1

[6] = system: Methicillin-resistant Staphylococcus aureus (MRSA, ATCC 33591); test: Minimum bactericidal concentration (MBC) assay; design: unit: µg/mL
Outline: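 Peptide at 0 to 300 μg/ml reacted 1 h at 37 °C with 1×10^5 CFU/ml bacteria in SP buffer (10 mM sodium phosphate, 1% TSB), bacteria pre-grown in 3% TSB. Aliquots then spread on TS agar and checked for colonies after 18 h at 37 °C.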

[7] = mark = antibacterial activity increased compared with KU-5878

| Molecule | hemolysis of red blood cells [1] | MBC CRPA ([2]; Tables 11-21, no unit printed) | MBC Staphylococcus aureus ([3]; Tables 11-21, no unit printed) | Increase in activity [4, 7] | MBC Pseudomonas aeruginosa ([5]; Tables 11-21, no unit printed) | MBC MRSA ([6]; Tables 11-21, no unit printed) | MBC CRPA ([2]; CRPA) | MBC Staphylococcus aureus ([3]; Staphylococcus aureus) | Increase in activity ([4]; compared with KU-5878) | MBC Pseudomonas aeruginosa ([5]; Pseudomonas aeruginosa) | MBC MRSA ([6]; MRSA) |
| --- | --- | --- | --- | --- | --- | --- | --- | --- | --- | --- | --- |
| CC[C@H](C)[C@H](NC(=O)CNC(=O)[C@H](CCSC)NC(=O)CNC(=O)[C@@H](NC(=O)[C@H](C)NC(=O)[C@H](CCSC)NC(=O)[C@H](Cc1ccccc1)NC(=O)[C@@H](NC(=O)CNC(=O)[C@H](Cc1ccccc1)NC(=O)[C@@H](CCCCN)NC(=O)CNC(=O)CNC(=O)[C@@H](CCCCN)NC(=O)[C@@H](CCCCN)NC(=O)[C@H](CCSC)NC(=O)[C@H](CCSC)NC(=O)[C@@H](CCCCN)NC(=O)[C@@H](N)CCCCN)[C@@H](C)O)[C@@H](C)CC)C(=O)N[C@@H](CCCNC(=N)N)C(=O)O [KU-5878-K4-D] (H-K[dK]MM[dK][dK]GG[dK]FGTFMAIGMGIR-OH) | little hemolysis |  |  |  |  |  |  |  |  |  |  |
| KTMMQSGGTFGTFMAIGM-IR [Peptide 5878-d76G] |  | 90 µg/mL | 70 µg/mL | 0 | 80 µg/mL | 90 µg/mL |  |  |  |  |  |
| KTMMQSGGTFGTFMAIGMGIRKK [Peptide 5878-KK] |  | 16 µg/mL | 16 µg/mL | ◯ | 15 µg/mL | 16 µg/mL |  |  |  |  |  |
| KTMMQSGGTFGTFMAIGMGIRRRR [Peptide 5878-3R] |  | 8 µg/mL | 8 µg/mL | ◯ | 8 µg/mL | 10 µg/mL |  |  |  |  |  |
| TKMMKKGGKFGTFMAIGMGIR [Peptide K4-K58T] |  | 3 | 3 | ◯ | 3 | 4 |  |  |  |  |  |
| d 58K 60M 71M 72A (MKKGGKFGTF) |  |  |  |  |  |  | 20 µg/mL | 15 µg/mL | ◯ | 20 µg/mL | 20 µg/mL |
| d 58K 64G 72A 75M (GKFGTFM) |  |  |  |  |  |  | 8 µg/mL | 6 µg/mL | ◯ | 6 µg/mL | 8 µg/mL |
| d 60M 61M 71M 75M (KKGGKFGTF) |  |  |  |  |  |  | 2 µg/mL | 1 µg/mL | ◯ | 2 µg/mL | 2 µg/mL |
| d 60M 62K 71M 75M (KGGKFGTF) |  |  |  |  |  |  | 3 µg/mL | 2 µg/mL | ◯ | 2 µg/mL | 3 µg/mL |
| d 60M 69T 71M 75M (MKKGGKFG) |  |  |  |  |  |  | 2 µg/mL | 1 µg/mL | ◯ | 2 µg/mL | 2 µg/mL |
| d 60M 71M 72A 75M (MKKGGKFGTF) |  |  |  |  |  |  | 2 µg/mL | 1 µg/mL | ◯ | 2 µg/mL | 3 µg/mL |
